Each molecule was assayed on Uracil-DNA glycosylase (Herpes simplex virus type 1) (assay: Inhibitory potency against HSV-1 UDG( Herpes Simplex virus type-I Uracil DNA glycosylase); 10-15% inhibition was observed at a concentration of 40 uM). Details: Human alphaherpesvirus 1.

Row | inhibition | Compound
1 | 15% | CCCCCCc1ccc(Nc2cc(=O)[nH]c(=O)n2CCC)cc1
2 | 15% | CCCCCCc1ccc(Nc2cc(=O)[nH]c(=O)n2CC)cc1
3 | 15% | CCCCCCc1ccc(Nc2cc(=O)[nH]c(=O)n2C)cc1

From ChEMBL document CHEMBL1132649, “Molecular modeling and synthesis of inhibitors of herpes simplex virus type 1 uracil-DNA glycosylase” (J Med Chem, 1999)
